Test results: patent publication US8318186B2, “Use of at least a fatty ester for preparing a composition designed to inhibit 5-α-reductase activity, in pharmacology, in particular dermatology, in cosmetics and as food additive” (Laboratoires Expanscience, priority 2000, dated 2012)
Where “and” joins values, the source holds several entries; their conditions need not be identical. Identical values can stand only once. Marks after values point to notes of the source that are not given here.

Test system: 5α-reductase
Assay: Fatty acid esters on 5α-reductase activity, conversion of testosterone to 5α-dihydrotestosterone in normal human dermal fibroblast cultures (Example 4)
Type: cell-based
Parameters: key to group by 5α-reductase inhibitory activity: group A with the highest inhibitory activity; group B with an intermediate inhibitory activity
Conditions: for inhibition of the 5α-reductase activity: Example 4, p<0.05; for 5α-DHT formed per culture well, mean / 5α-DHT formed per culture well, single well: after 24 of incubation, DMSO 0.1% (v/v); for 5α-DHT formed per culture well, single well: single replicate; for group by 5α-reductase inhibitory activity: tested at 1, 10 and 100 μg/ml
Method: The fibroblast culture medium (FCM) consisted of MEM/M199 (3:1, v/v) supplemented with penicillin (50 IU/ml), streptomycin (50 μg/ml), sodium bicarbonate (0.2%, w/v) and FCS (10%, v/v).
The assay system consisted of normal human dermal fibroblasts cultured as a monolayer. The fibroblasts were isolated from a residue from abdominal plastic surgery performed on a person (subject BIOPREDIC No. I0013). The cells were used at the fifth passage; they were cultured until the monolayers were confluent in FCM medium at 37° C. in a humid atmosphere containing 5% CO2.
The fibroblast incubation medium (FIM) consisted of FCM supplemented with tritiated testosterone (1.6×10^−7 M, that is 6.32 μCi/ml) and nonradiolabeled testosterone (3.84×10^−6 M)
The test products and finasteride were taken up in DMSO before being diluted in the incubation medium. […]
The fibroblast cultures were preincubated in the presence of the test products or of the reference product for 2 hours before adding the substrate, testosterone. For this step, the test products and the reference product were prepared in the FCM medium.
After preincubation, the fibroblast cultures were incubated in the presence of the test products or of the reference product prepared in the FIM medium for 22 hours at 37° C. in a humid atmosphere containing 5% CO2. Control cultures were incubated in the FIM medium in the absence of test products and of reference product. […]
Each experimental condition was tested in triplicate.
After the incubation period, the cells were subjected to the action of ultrasound in the FIM medium. The cellular lysates thus obtained were extracted with dichloromethane. After evaporation, the dry residues were taken up in methanol and were deposited on 60F254 silica plates (MERCK, reference 5554).
The migration solvent was a mixture of dichloromethane and ether (7:3, v/v) At the end of the migration, the silica plates were read using a BERTHOLD radioactivity scanner.
The metabolizing of testosterone to 5α-dihydro-testosterone under the various experimental conditions was calculated: the results (areas of the 5α-dihydrotestosterone peaks counted by the BERTHOLD scanner) were expressed in pmol of 5α-dihydro-testosterone formed per culture well. They were also expressed as a percentage of the 5α-reductase activity present in the “DMSO control” group.
The groups of data (control group and treated groups) were treated by a one-way analysis of variance (ANOVA 1, p<0.05), followed by a DUNNETT's test (p<0.05). The effect of the test products and of the reference product was compared with the “DMSO control” group. The effects of the test products were compared to each other by a two-way analysis of variance (ANOVA 2, p<0.05, factor 1=concentration and factor 2=treatment).
The same materials and methods are used as in example 3 above.
It was proposed to evaluate the effect of fatty acid esters on the 5α-reductase activity. An in vitro model of normal human dermal fibroblast cultures was selected. The products tested were chosen from the group of fatty acid esters varying in the length and the functionality of the fatty chain, and the nature of the alkoxy group. These esters are the following: methyl oleate, methyl linoleate, methyl stearate, methyl laurate, methyl undecylenate, butyl oleate, oleyl oleate and methyl ricinoleate.

For `CCCCCCCC/C=C\CCCCCCCC(=O)OCCCC` [Butyl oleate, butyl oleate], the “5α-reductase activity as percentage of the “DMSO 0.1% (v/v)” group” value (1 μg/ml) was 79 percentage of the “DMSO 0.1% (v/v)” group, the “inhibition of the 5α-reductase activity” value (1 μg/ml) was 21% and the “5α-DHT formed per culture well, mean” value (1 μg/ml) was 9.00* +/− pmol of 5α-DHT formed/culture well. For the same compound, the “5α-DHT formed per culture well, single well” value (1 μg/ml) was 10.64 pmol of 5α-DHT formed/culture well and 8.28 pmol of 5α-DHT formed/culture well and 8.08 pmol of 5α-DHT formed/culture well, the “5α-reductase activity as percentage of the “DMSO 0.1% (v/v)” group” value (10 μg/ml) was 55 percentage of the “DMSO 0.1% (v/v)” group and the “inhibition of the 5α-reductase activity” value (10 μg/ml) was 45%. The “5α-DHT formed per culture well, mean” value (10 μg/ml) was 6.21* +/− pmol of 5α-DHT formed/culture well, the “5α-DHT formed per culture well, single well” value (10 μg/ml) was 6.24 pmol of 5α-DHT formed/culture well and 5.04 pmol of 5α-DHT formed/culture well and 7.36 pmol of 5α-DHT formed/culture well and the “5α-reductase activity as percentage of the “DMSO 0.1% (v/v)” group” value (100 μg/ml) was 51 percentage of the “DMSO 0.1% (v/v)” group. The “inhibition of the 5α-reductase activity” value (100 μg/ml) was 49%, the “5α-DHT formed per culture well, mean” value (100 μg/ml) was 5.77* +/− pmol of 5α-DHT formed/culture well and the “5α-DHT formed per culture well, single well” value (100 μg/ml) was 5.20 pmol of 5α-DHT formed/culture well and 6.72 pmol of 5α-DHT formed/culture well and 5.40 pmol of 5α-DHT formed/culture well. For the same compound, the “group by 5α-reductase inhibitory activity” value was “A”.

`CCCCCCCCCCCC(=O)OC` [Methyl laurate, methyl laurate] was tested, and the “5α-reductase activity as percentage of the “DMSO 0.1% (v/v)” group” value (1 μg/ml) was 57 percentage of the “DMSO 0.1% (v/v)” group, the “5α-DHT formed per culture well, mean” value (1 μg/ml) was 6.49* +/− pmol of 5α-DHT formed/culture well and the “5α-DHT formed per culture well, single well” value (1 μg/ml) was 5.76 pmol of 5α-DHT formed/culture well and 6.88 pmol of 5α-DHT formed/culture well and 6.84 pmol of 5α-DHT formed/culture well. The “5α-reductase activity as percentage of the “DMSO 0.1% (v/v)” group” value (10 μg/ml) was 77 percentage of the “DMSO 0.1% (v/v)” group, the “5α-DHT formed per culture well, mean” value (10 μg/ml) was 8.75 pmol of 5α-DHT formed/culture well and the “5α-DHT formed per culture well, single well” value (10 μg/ml) was 6.84 pmol of 5α-DHT formed/culture well and 9.88 pmol of 5α-DHT formed/culture well and 9.52 pmol of 5α-DHT formed/culture well. For the same compound, the “5α-reductase activity as percentage of the “DMSO 0.1% (v/v)” group” value (100 μg/ml) was 86 percentage of the “DMSO 0.1% (v/v)” group, the “5α-DHT formed per culture well, mean” value (100 μg/ml) was 9.80 pmol of 5α-DHT formed/culture well and the “5α-DHT formed per culture well, single well” value (100 μg/ml) was 8.48 pmol of 5α-DHT formed/culture well and 11.96 pmol of 5α-DHT formed/culture well and 8.96 pmol of 5α-DHT formed/culture well. For the same compound, the “group by 5α-reductase inhibitory activity” value was “B”.

For `CCCCC/C=C\C/C=C\CCCCCCCC(=O)OC` [Methyl linoleate, methyl linoleate], the “5α-reductase activity as percentage of the “DMSO 0.1% (v/v)” group” value (1 μg/ml) was 58 percentage of the “DMSO 0.1% (v/v)” group, the “inhibition of the 5α-reductase activity” value (1 μg/ml) was 42% and the “5α-DHT formed per culture well, mean” value (1 μg/ml) was 6.60* +/− pmol of 5α-DHT formed/culture well. For the same compound, the “5α-DHT formed per culture well, single well” value (1 μg/ml) was 7.04 pmol of 5α-DHT formed/culture well and 6.40 pmol of 5α-DHT formed/culture well and 6.36 pmol of 5α-DHT formed/culture well, the “5α-reductase activity as percentage of the “DMSO 0.1% (v/v)” group” value (10 μg/ml) was 60 percentage of the “DMSO 0.1% (v/v)” group and the “inhibition of the 5α-reductase activity” value (10 μg/ml) was 40%. For the same compound, the “5α-DHT formed per culture well, mean” value (10 μg/ml) was 6.87* +/− pmol of 5α-DHT formed/culture well, the “5α-DHT formed per culture well, single well” value (10 μg/ml) was 6.00 pmol of 5α-DHT formed/culture well and 6.60 pmol of 5α-DHT formed/culture well and 8.00 pmol of 5α-DHT formed/culture well and the “5α-reductase activity as percentage of the “DMSO 0.1% (v/v)” group” value (100 μg/ml) was 71 percentage of the “DMSO 0.1% (v/v)” group. For the same compound, the “inhibition of the 5α-reductase activity” value (100 μg/ml) was 29%, the “5α-DHT formed per culture well, mean” value (100 μg/ml) was 8.05* +/− pmol of 5α-DHT formed/culture well and the “5α-DHT formed per culture well, single well” value (100 μg/ml) was 8.56 pmol of 5α-DHT formed/culture well and 8.04 pmol of 5α-DHT formed/culture well and 7.56 pmol of 5α-DHT formed/culture well. The “group by 5α-reductase inhibitory activity” value was “B”.

`CCCCCC[C@@H](O)C/C=C\CCCCCCCC(=O)OC` [Methyl ricinoleate, methyl ricinoleate] was tested, and the “5α-reductase activity as percentage of the “DMSO 0.1% (v/v)” group” value (1 μg/ml) was 63 percentage of the “DMSO 0.1% (v/v)” group, the “inhibition of the 5α-reductase activity” value (1 μg/ml) was 37% and the “5α-DHT formed per culture well, mean” value (1 μg/ml) was 7.19* +/− pmol of 5α-DHT formed/culture well. The “5α-DHT formed per culture well, single well” value (1 μg/ml) was 6.52 pmol of 5α-DHT formed/culture well and 8.36 pmol of 5α-DHT formed/culture well and 6.68 pmol of 5α-DHT formed/culture well, the “5α-reductase activity as percentage of the “DMSO 0.1% (v/v)” group” value (10 μg/ml) was 62 percentage of the “DMSO 0.1% (v/v)” group and the “inhibition of the 5α-reductase activity” value (10 μg/ml) was 38%. The “5α-DHT formed per culture well, mean” value (10 μg/ml) was 7.04* +/− pmol of 5α-DHT formed/culture well, the “5α-DHT formed per culture well, single well” value (10 μg/ml) was 7.84 pmol of 5α-DHT formed/culture well and 7.40 pmol of 5α-DHT formed/culture well and 5.88 pmol of 5α-DHT formed/culture well and the “5α-reductase activity as percentage of the “DMSO 0.1% (v/v)” group” value (100 μg/ml) was 38 percentage of the “DMSO 0.1% (v/v)” group. For the same compound, the “inhibition of the 5α-reductase activity” value (100 μg/ml) was 62%, the “5α-DHT formed per culture well, mean” value (100 μg/ml) was 4.33* +/− pmol of 5α-DHT formed/culture well and the “5α-DHT formed per culture well, single well” value (100 μg/ml) was 3.68 pmol of 5α-DHT formed/culture well and 4.52 pmol of 5α-DHT formed/culture well and 4.80 pmol of 5α-DHT formed/culture well. For the same compound, the “group by 5α-reductase inhibitory activity” value was “A”.

In the case of `CCCCCCCCCCCCCCCCCC(=O)OC` [Methyl stearate, methyl stearate], the “5α-reductase activity as percentage of the “DMSO 0.1% (v/v)” group” value (1 μg/ml) is reported as 59 percentage of the “DMSO 0.1% (v/v)” group, the “inhibition of the 5α-reductase activity” value (1 μg/ml) is reported as 41% and the “5α-DHT formed per culture well, mean” value (1 μg/ml) is reported as 6.69* +/− pmol of 5α-DHT formed/culture well. The “5α-DHT formed per culture well, single well” value (1 μg/ml) was 6.92 pmol of 5α-DHT formed/culture well and 6.08 pmol of 5α-DHT formed/culture well and 7.08 pmol of 5α-DHT formed/culture well, the “5α-reductase activity as percentage of the “DMSO 0.1% (v/v)” group” value (10 μg/ml) was 65 percentage of the “DMSO 0.1% (v/v)” group and the “inhibition of the 5α-reductase activity” value (10 μg/ml) was 35%. The “5α-DHT formed per culture well, mean” value (10 μg/ml) was 7.43* +/− pmol of 5α-DHT formed/culture well, the “5α-DHT formed per culture well, single well” value (10 μg/ml) was 8.80 pmol of 5α-DHT formed/culture well and 6.72 pmol of 5α-DHT formed/culture well and 6.76 pmol of 5α-DHT formed/culture well and the “5α-reductase activity as percentage of the “DMSO 0.1% (v/v)” group” value (100 μg/ml) was 57 percentage of the “DMSO 0.1% (v/v)” group. For the same compound, the “inhibition of the 5α-reductase activity” value (100 μg/ml) was 43%, the “5α-DHT formed per culture well, mean” value (100 μg/ml) was 6.52* +/− pmol of 5α-DHT formed/culture well and the “5α-DHT formed per culture well, single well” value (100 μg/ml) was 6.88 pmol of 5α-DHT formed/culture well and 5.92 pmol of 5α-DHT formed/culture well and 6.76 pmol of 5α-DHT formed/culture well. The “group by 5α-reductase inhibitory activity” value was “B”.
